# Patent US12709733B2, “Cell culture media” (Merck Patent GmbH, priority 2019, dated 2026)
# Legend:
# [1] = Maximum solubility in water at 25° C. (saturated solution, residual mass after infrared drying); type: physicochemical; conditions: for solubility / Solubility 25° C. in g/kg (amino acid) / increase in solubility compared to the respective amino acid / Solubility 25° C. in g/kg (corresponding Lac-AA): 25° C.; for solubility: stated in description; for maximum solubilities obtained in water: separate experiments comparing Leu, Leu sodium salt and lac-Leu sodium salt; for Solubility 25° C. in g/kg (amino acid) / increase in solubility compared to the respective amino acid / Solubility 25° C. in g/kg (corresponding Lac-AA): water; for Solubility 25° C. in g/kg (amino acid): native amino acid; for Solubility 25° C. in g/kg (corresponding Lac-AA): Lac-AA sodium salt
# Method: After sedimentation, the solution was dried using infrared (120° C., 120 min) and the residual mass was determined in g/kg.
# [2] = Maximum solubility in Cellvento 4Feed depleted in Ile and Leu (turbidity measurement); type: physicochemical; conditions: for solubility at 10 min: aqueous with cosolvent or surfactant or cyclodextrin, thermodynamic from solid, pH 7.0+/-0.2, 25° C., soluble = turbidity below 5 NTU; for solubility at 10 min / times more soluble than the native amino acid in Cellvento 4Feed depleted in Ile/Leu: 113 g/L feed; for times more soluble than the native amino acid in Cellvento 4Feed depleted in Ile/Leu: pH 7.0+/-0.2
# Method: Increasing amounts of the Lac-Leu and Lac-Ile and salts thereof were added to a cell culture feed formulation (Cellvento® 4Feed) depleted in Ile and Leu. Similarly, increasing amounts of Ile and Leu were added to the same feed formulation as a control. The total concentration of this feed formulation was 113 g/L and the pH was 7.0+/−0.2. In small scale experiments, after each addition of either the amino acid or the Lac-AA, the feed was agitated for 10 mins and turbidity was measured. The experiments were performed at room temperature (25° C.).
# A solution having a turbidity below 5 NTU is considered soluble.
# [3] = test system: CHODG44 clone producing an IgG1; assay: Fed-batch experiments with a CHODG44 clone; type: cell-based
# From the text: Results (FIG. 16, 17, 18) indicate a similar VCD and IgG titer for the Lac-Leu and Lac-Ile conditions compared to the control positive control. […] The explanation for this difference in behavior between CHOK1GS cells and this DG44 cell line is currently unknown. The Leu and Ile concentrations in the spent media (FIG. 19 and) decreased during the first day of the FB culture to finally increase again after D7. This behavior is similar to the behavior seen for CHOK1GS cells and indicate a slow release process of the free AA from the derivatives.
# [4] = test system: CHOK1GS suspension cell line expressing a human IgG1; assay: Quality of the antibody produced in the fed-batch process (glycosylation, aggregation/fragmentation, charge variants); type: cell-based; conditions: IgG1 purified from supernatant
# Method: The quality of the antibody produced in the control fed-batch process (with feed containing Ile and Leu) was compared to the quality of the antibody produced with feed depleted in either Leu and Ile and supplemented with either Lac-Leu or Lac-Ile.
# The antibody was purified from the cell culture supernatant using protein A PhyTips® (PhyNexus Inc, San Jose, CA). Glycosylation patterns were analyzed by capillary gel electrophoresis with laser-induced fluorescence (CGE-LIF) after derivatization using the GlykoPrep®-plus Rapid N-Glycan Sample Preparation kit with 8-aminopyrene-1,3,6-trisulfonic acid trisodium (APTS) (Prozyme, Hayward, CA) according to the manufacturer's instructions. […] After a cleaning step to remove the remaining APTS, the relative amounts of glycans were determined using the Pharmaceutical Analysis System CESI8000 Plus (Sciex, Washington, USA) with a LIF detector (Ex: 488 nm, Em: 520 nm). […]
# Antibody aggregation and fragmentation were measured using size exclusion chromatography on an Water Acquity UPLC system using a TSKgel SuperSW3000 column (Tosoh Bioscience). […] The sample concentration was adjusted to 1.0 mg/mL after the IgG purification using the storage buffer and the detection was performed using the absorbance at 214 nm. […]
# [5] = Stability of Lac-AA in Cellvento 4Feed-Ile/Leu by LC-MS; type: physicochemical; conditions: stored up to 3 months at 4° C. or RT protected from light
# Method: To monitor the stability of Lac-AA in the complex feed mixture, a targeted quantitative LC-MS method was developed. Serial dilutions of Lac-Leu and Lac-Ile in Cellvento® 4Feed—Ile/Leu pH 7.0 were performed from 100 mM to 100 μM to determine the linearity of the method. A 200-fold dilution in water was performed prior to LC-MS analysis. The method was developed on a UHPLC (Vanquish, Thermo Fisher) coupled with an ESI-Q-ToF mass spectrometer (Impact II, Bruker Daltonics).
# Briefly, 1 μL of sample were loaded in 99.9% buffer A (20 mM ammonium formate/0.1% FA) onto a XSelect HSS T3 column (2.1×150 mm, 3.5 μm, Waters) thermostated at 40° C. with a flowrate of 300 μL/min and eluted with a multistep gradient of buffer B (100% methanol) presented in Table 2.
# LC-MS analyses were performed using the Impact II mass spectrometer equipped with an ESI source (Bruker Daltonics). MS acquisition was performed in negative mode with end plate offset and capillary voltages set at 500 and 3500 V, respectively. Nebulizer and dry gas (250° C.) were set at 1.4 bar and 9.0 L/min, respectively. MS spectra were acquired over the m/z range 20-1000 with a scan rate of 5 Hz. […]
# Using the method previously developed, the stability of Lac-Ile and Lac-Leu in Cellvento® 4Feed-Ile/Leu was monitored in samples stored at 4° C. and RT protected from light for 3 months.
# [6] = test system: CHOK1GS suspension cell line expressing a human IgG1; assay: Fed-batch cell culture with Lac-AA replacing the amino acid in the feed, CHOK1GS clone; type: cell-based; conditions: for concentration of Ile in the spent medium / concentration of Leu in the spent medium / effect on viable cell density (VCD) compared to positive control: 17-days fed-batch; for effect on viable cell density (VCD) compared to positive control: Lac-AA replacing amino acid in feed; for IgG titer compared to control: day 14; for increase of free lactate (area under the curve of lactate concentration): supernatant over the fed-batch process
# Method: For cell culture experiments, a CHOK1GS suspension cell line expressing a human IgG1, was used. Cells were cultivated in quadruplicate in Cellvento® 4CHO medium (Merck Darmstadt, Germany) using 50 mL spin tubes with a starting culture volume of 30 mL and a seeding density of 2×10^5 cells/mL.
# Incubation was carried out at 37° C., 5% CO2, 80% humidity and an agitation of 320 rpm. The Lac-AA were added in the Feed (Cellvento® 4Feed depleted in Ile and leu) instead of their respective amino acids. The pH of all the feeds was neutral (pH 7.0+/−0.2). The positive control contained the normal amino acids whereas the negative control contained the feed depleted in the respective amino acid and without addition of Lac-AA. Feeding was carried out at days 3, 5, 7, 10, 12 and 14 at the following v/v ratios (3, 3, 6, 3, 3 and 3%). Glucose was quantified daily and adjusted to 6 g/L using a 400 g/L glucose solution. The experiment was repeated at least 3 times.
# The viable cell density (VCD) and viability were evaluated with a Vi-CELL XR (Beckman Coulter, Fullerton, CA). Metabolite concentrations were monitored using a Cedex Bio HT (Roche Diagnostics, Mannheim, Germany) based on spectrophotometric and turbidometric methods. Quantification of amino acids was carried out via UPLC after derivatization with the AccQ·TagUltra® reagent kit. Derivatization, chromatography and data analysis were carried out following the supplier recommendations (Waters, Milford, MA).
smiles,measurement,setting,value
CC(C)C[C@H](N)C(=O)O [Leucine],solubility,[1],about 22.1 g/kg
same,maximum solubilities obtained in water,[1],22.1 g/kg
same,Solubility 25° C. in g/kg (amino acid),[1],22.1 g/kg
same,solubility at 10 min,[2],~90 mM
CSCC[C@H](N)C(=O)O [Methionine],Solubility 25° C. in g/kg (amino acid),[1],52.9 g/kg
"CC(C)C[C@H](NC(=O)C(C)O)C(=O)O (stereo partly drawn) [Lac-Leu, N-lactoyl leucine]",IgG titer compared to positive control,[3],similar
same,VCD compared to positive control,[3],similar
same,increase in solubility compared to the respective amino acid,[1],around 30 fold
same,"glycosylation, high and low molecular weight species and charge variants of the IgG1 versus control condition",[4],no difference
same,stability in Cellvento 4Feed-Ile/Leu,[5],stable
same,times more soluble than the native amino acid in Cellvento 4Feed depleted in Ile/Leu,[2],6.6 times
same,solubility at 10 min,[2],~600 mM
same,concentration of Ile in the spent medium,[6],decreased after day 7
same,concentration of Leu in the spent medium,[6],decreased very rapidly until day 7 and increased again afterwards
same,effect on viable cell density (VCD) compared to positive control,[6],positive effect on the duration of the plateau phase
same,viable cell density in plateau phase,[6]; day 10 to day 14,~15 million cells/mL
same,IgG titer compared to control,[6],"slight, but not significant higher titer"
same,increase of free lactate (area under the curve of lactate concentration),[6],20%
CC(C)C[C@H](N)C(=O)[O-].[Na+] [Leu sodium salt],maximum solubilities obtained in water,[1],86.0 g/kg
CC(O)C(=O)NC(Cc1ccccc1)C(=O)[O-].[Na+] (stereo not drawn) [Lac-Phe sodium salt],Solubility 25° C. in g/kg (corresponding Lac-AA),[1],483.1 g/kg
N[C@@H](Cc1ccccc1)C(=O)O [Phenylalanine],Solubility 25° C. in g/kg (amino acid),[1],26.0 g/kg
CC(O)C(=O)NC(Cc1ccc(O)cc1)C(=O)[O-].[Na+] (stereo not drawn) [Lac-Tyr sodium salt],Solubility 25° C. in g/kg (corresponding Lac-AA),[1],101.9 g/kg
"CC[C@H](C)[C@H](NC(=O)C(C)O)C(=O)O (stereo partly drawn) [Lac-Ile, N-lactoyl isoleucine]",IgG titer compared to positive control,[3],similar
same,VCD compared to positive control,[3],similar
same,increase in solubility compared to the respective amino acid,[1],20 fold
same,"glycosylation, high and low molecular weight species and charge variants of the IgG1 versus control condition",[4],no difference
same,stability in Cellvento 4Feed-Ile/Leu,[5],stable
same,turbidity at maximum tested concentration,[2]; 951 mM in Cellvento 4Feed depleted in Ile/Leu,below 5 NTU
same,times more soluble than the native amino acid in Cellvento 4Feed depleted in Ile/Leu,[2],at least 9 times
same,solubility at 10 min,[2],≥ 951 mM
same,concentration of Ile in the spent medium,[6],decreased very rapidly until day 7 and increased again afterwards
same,concentration of Leu in the spent medium,[6],moderately decreased
same,effect on viable cell density (VCD) compared to positive control,[6],no effect on the peak VCD or overall VCD profile
same,IgG titer compared to control,[6],"slight, but not significant higher titer"
same,increase of free lactate (area under the curve of lactate concentration),[6],37%
CC(C)[C@H](N)C(=O)O [Valine],Solubility 25° C. in g/kg (amino acid),[1],57.8 g/kg
CC[C@H](C)[C@H](N)C(=O)O [Isoleucine],solubility,[1],32.4 g/kg
same,Solubility 25° C. in g/kg (amino acid),[1],32.4 g/kg
same,solubility at 10 min,[2],~105 mM
